Columns and labels:
ABCG2 = molecular target: T1, ABCG2 (Homo sapiens, UniProt Q9UNQ0); assay: ATP-dependent transport of CLF into Sf21 membrane vesicles containing ABCG2; assay type: biochemical; details: compared with control vesicles
T1 construct: made in house; host or cells: Sf21 insect cells, baculovirus (gift from Borst); plasma membrane vesicles
T1 sequence (Q9UNQ0 1-655): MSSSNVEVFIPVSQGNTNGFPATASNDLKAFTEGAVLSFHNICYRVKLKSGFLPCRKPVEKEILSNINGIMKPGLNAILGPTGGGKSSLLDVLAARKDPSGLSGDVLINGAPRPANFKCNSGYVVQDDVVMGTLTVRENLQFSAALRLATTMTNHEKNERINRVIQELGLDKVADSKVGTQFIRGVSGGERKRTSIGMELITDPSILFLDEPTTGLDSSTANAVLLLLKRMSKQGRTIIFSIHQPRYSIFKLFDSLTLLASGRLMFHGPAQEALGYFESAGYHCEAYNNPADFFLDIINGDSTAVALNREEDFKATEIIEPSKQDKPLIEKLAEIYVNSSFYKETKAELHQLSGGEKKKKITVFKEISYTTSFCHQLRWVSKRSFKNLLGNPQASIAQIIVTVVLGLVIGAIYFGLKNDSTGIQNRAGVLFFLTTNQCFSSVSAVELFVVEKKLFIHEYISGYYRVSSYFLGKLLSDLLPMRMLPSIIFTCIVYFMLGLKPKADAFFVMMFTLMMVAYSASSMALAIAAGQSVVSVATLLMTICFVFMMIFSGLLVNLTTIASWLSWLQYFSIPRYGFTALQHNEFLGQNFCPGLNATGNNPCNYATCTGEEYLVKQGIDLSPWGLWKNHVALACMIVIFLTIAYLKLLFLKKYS
Procedure: The production of recombinant baculovirus was as described by de Waart et al. [Liver Int 2006 April; 26(3):362-368]. ABCC3 and ABCG2-recombinant baculovirus were a kind gift from Borst [Breedveld P. et al., Cancer Res 2004 Aug. 15; 64(16):5804-5811 and Borst P. et al., J Biol Chem 2001 Dec. 7; 276(49):46400-46407.]. ABCB11-recombinant baculovirus was a kind gift from Thompson [Thompson R J et al., Gastroenterology 2002 November; 123(5):1649-1658]. Sf21 cells grown at 27° C. were infected with ABCB11, ABCC2, ABCC3 and ABCG2-cDNA containing baculovirus. Cells were harvested at 2-4 days after infection. Membrane vesicle preparation was as described by de Waart et al. [Liver Int 2006 April; 26(3):362-368].
Transport studies with membrane vesicles were performed using the rapid filtration technique as described by Heijn M et al. [Am J Physiol 1992 January; 262(1 Pt 1):C104-C110]. Radiolabel was measured with a scintillation counter. When CLF was used as a probe, filters were placed in a glass tube, 0.1% Triton-X-100 was added and the tubes vortexed. Samples were pipetted in 96-well plates (Kartell, Noviglio, Italy) and the amount CLF quantitated by measurement of fluorescence at λexe 485 nm and λcm 520 nm using a NovoStar (BMG-labtech, Offenburg, Germany).

Abcc2 and Abcc3 = assay: Plasma clearance of CLF in wild type, Abcc2-/- and Abcc3-/- mice; assay type: in vivo; details: single injection of 100 μL 2 mmol/L CLF in the tail vein
Procedure: Wild type, Abcc3^−/− and Abcc2^−/− mice received 100 μL of 2 mmol/L CLF by injection in the tail vein. After the indicated time points blood was drawn. Data are expressed as the mean percentage of the initial CLF level at 2 minutes. Significance was tested using two-sided Student's t-test: *P<0.05 for Abcc2−/− vs wild type mice.
Abcc2^−/− mice (against a Friend virus B-type (FVB) background) were bred at the National Cancer Institute (Amsterdam, The Netherlands). Production and characterization of the Abcc2^−/− mice was as described by Vlaming et al. [J Pharmacol Exp Ther 2006 July; 318(1):319-327]. Wild type and Abcc3^−/− mice (against an FVB background) were bred at the animal institute of the Academic Medical Center. Production and characterization of the Abcc3^−/− mice was as described by Zelcer et al. [J Hepatol 2006 April; 44(4):768-775].
Male mice were housed in a pathogen-free animal facility on a 12 hours light-dark cycle. Mice were anesthetized with a combination of Hypnorm (VetaPharma, UK; 11.8 mg/kg fluanisone and 0.37 mg/kg fentanyl-citrate) and diazepam (Centrafarm, Etten-Leur, The Netherlands; 5.9 mg/kg valium). Body temperature was maintained at 36±1° C. on thermostatted heating pads. […] Blood samples were deproteinised by addition of two volumes methanol and the amount CLF in the supernatant was quantitated by measurement of fluorescence as described above.

## CC(CCC(=O)NC(CCCCNC(=S)Nc1ccc(-c2c3ccc(=O)cc-3oc3cc(O)ccc23)c(C(=O)O)c1)C(=O)O)C1CCC2C3C(O)CC4CC(O)CCC4(C)C3CC(O)C12C (stereo not drawn) [CLF, cholyl lysyl fluorescein]
ABCG2
  ATP-dependent transport of CLF in ABCG2 containing membrane vesicles: not higher than in control vesicles
Abcc2 and Abcc3
  Plasma clearance of CLF in Abcc2-/- mice in comparison with wild type mice: strongly impaired
  Plasma clearance of CLF in Abcc3-/- mice in comparison with wild type mice: not affected

From patent US8318504B2, “MRP2 efflux pathway prognostic method” (priority 2009, dated 2012)
